{"source": "paper PMC8175350", "about": "“Drug repurposing screens identify chemical entities for the development of COVID-19 interventions” (Nature Communications, 2021)", "key": {"Calu-3 cells [1]": {"system": "Calu-3 cells", "conditions": "for EC50: read-out: Calu-3 cell count EC50 GeoMean"}, "HepG2": {"system": "HepG2", "assay": "HepG2 72 h CellTiter-Glo cytotoxicity", "conditions": "72 h"}, "SARS-CoV-2 [2]": {"system": "SARS-CoV-2", "assay_type": "cell-based", "conditions": "combination with remdesivir"}, "SARS-CoV-2 [3]": {"system": "SARS-CoV-2", "assay": "microbe, parasite or virus in culture", "assay_type": "cell-based"}, "HEK293T": {"system": "HEK293T", "assay": "HEK293T 72 h CellTiter-Glo cytotoxicity", "conditions": "72 h"}, "HeLa-ACE2 cells [4]": {"system": "HeLa-ACE2 cells", "assay": "cells", "assay_type": "cell-based, human", "conditions": "read-out: HeLa-ACE2 TOA cell count EC50 GeoMean"}, "SARS-CoV-2 [5]": {"system": "SARS-CoV-2", "assay": "microbe, parasite or virus in culture", "assay_type": "cell-based", "conditions": "for EC50: read-out: HeLa-ACE2 CoV-2 EC50 GeoMean"}, "Calu-3 cells [6]": {"system": "Calu-3 cells", "assay": "Uninfected Calu-3 48 h Cell-Titer Glo cytotoxicity counter screen", "conditions": "for CC50: read-out: Calu-3 uninfected cytotoxicity CC50 GeoMean"}, "HeLa-ACE2 cells [7]": {"system": "HeLa-ACE2 cells", "assay": "Uninfected HeLa-ACE2 24 h live/dead cytotoxicity counter screen", "assay_type": "cell-based, human", "conditions": "for CC50: read-out: HeLa-ACE2 uninfected cytotoxicity CC50 GeoMean"}, "HeLa-ACE2 cells [8]": {"system": "HeLa-ACE2 cells", "conditions": "for EC50: read-out: HeLa-ACE2 cell count EC50 GeoMean"}, "SARS-CoV-2 [9]": {"system": "SARS-CoV-2", "assay": "microbe, parasite or virus in culture", "assay_type": "cell-based", "remark": "listed apart in the source"}, "HeLa-ACE2 cells [10]": {"system": "HeLa-ACE2 cells", "assay": "cells", "conditions": "Homo sapiens, HeLa-ACE2, read-out: HeLa-ACE2 cell count EC50 GeoMean, unrounded geometric mean"}, "SARS-CoV-2 [11]": {"system": "SARS-CoV-2", "assay_type": "cell-based"}, "[12]": {"assay": "Uninfected Calu-3 48 h Cell-Titer Glo cytotoxicity counter screen", "conditions": "human, uninfected Calu-3 cells, Calu-3 uninfected cytotoxicity CC50 GeoMean, unrounded geometric mean"}, "[13]": {"assay": "Uninfected HeLa-ACE2 24 h live/dead cytotoxicity counter screen", "assay_type": "cell-based, human", "conditions": "human, uninfected HeLa-ACE2 cells, unrounded geometric mean; read-out: HeLa-ACE2 uninfected cytotoxicity CC50 GeoMean"}, "Calu-3 cells [14]": {"system": "Calu-3 cells", "assay": "cells", "conditions": "Homo sapiens"}, "[15]": {"conditions": "curve plateau at infinite concentration"}, "[16]": {"conditions": "curve-fit effect at infinite concentration, average"}, "[17]": {"conditions": "unrounded geometric mean, read-out: Calu-3 CoV-2 EC50 GeoMean"}}, "note": "Where a name gives a salt, the structure may show the parent alone. Read-outs that look alike come from different tables or passages of the source."}
{"molecule": "CN(C)CC1=C[CH]([Fe][CH]2C=CC=C2)C=C1CNc1ccnc2cc(Cl)ccc12", "note": "(stereo not drawn) [Ferroquine]", "values": [{"measurement": "EC50", "setting": "Calu-3 cells [1]; detail block", "result": "> 9.98", "unit": "µM"}, {"measurement": "HepG2 72-hour cytotoxicity Sinf Average", "setting": "HepG2", "result": -100, "unit": "%"}, {"measurement": "CC50", "setting": "HepG2; read-out: HepG2 72-hour cytotoxicity CC50 GeoMean", "result": 4.72, "unit": "µM"}, {"measurement": "HeLa-ACE2 synergy score with remdesivi", "setting": "SARS-CoV-2 [2]", "result": "-2.076 δ"}, {"measurement": "TOA:HeLa-ACE2 EC50 Ratio", "setting": "SARS-CoV-2 [3]", "result": 7.345}, {"measurement": "HeLa-ACE2 TOA CoV-2 Sinf Average", "setting": "SARS-CoV-2 [3]; [15]", "result": -100, "unit": "%"}, {"measurement": "EC50", "setting": "SARS-CoV-2 [3]; read-out: HeLa-ACE2 TOA CoV-2 EC50 GeoMean", "result": "> 9.59", "unit": "µM"}, {"measurement": "HEK293T 72-hour cytotoxicty Sinf Average", "setting": "HEK293T", "result": -100, "unit": "%"}, {"measurement": "CC50", "setting": "HEK293T; read-out: HEK293T 72-hour cytotoxicty CC50 GeoMean", "result": 7.24, "unit": "µM"}, {"measurement": "EC50", "setting": "HeLa-ACE2 cells [4]", "result": "> 9.59", "unit": "µM"}, {"measurement": "HeLa-ACE2 CoV-2 Sinf Average", "setting": "SARS-CoV-2 [5]; [15]", "result": -97, "unit": "%"}, {"measurement": "EC50", "setting": "SARS-CoV-2 [5]; detail block", "result": 1310, "unit": "nM"}, {"measurement": "HeLa-ACE2 SI", "setting": "SARS-CoV-2 [5]; selectivity index, uninfected HeLa-ACE2 CC50 / SARS-CoV-2 EC50", "result": 10.29}, {"measurement": "Calu-3 uninfected cytotoxicity Sinf Average", "setting": "Calu-3 cells [6]; [15]", "result": -100, "unit": "%"}, {"measurement": "CC50", "setting": "Calu-3 cells [6]; detail block", "result": 17.5, "unit": "µM"}, {"measurement": "HeLa-ACE2 uninfected cytotoxicity Sinf Average", "setting": "HeLa-ACE2 cells [7]; [15]", "result": -100, "unit": "%"}, {"measurement": "CC50", "setting": "HeLa-ACE2 cells [7]; detail block", "result": 13.4, "unit": "µM"}, {"measurement": "HeLa-ACE2 cell count Sinf Average", "setting": "HeLa-ACE2 cells [8]; [15]", "result": -53, "unit": "%"}, {"measurement": "EC50", "setting": "HeLa-ACE2 cells [8]; detail block", "result": "> 6.8", "unit": "µM"}, {"measurement": "Calu-3 CoV-2 Sinf Average", "setting": "SARS-CoV-2 [9]; [15]", "result": -100, "unit": "%"}, {"measurement": "EC50", "setting": "SARS-CoV-2 [9]; read-out: Calu-3 CoV-2 EC50 GeoMean", "result": "> 9980", "unit": "nM"}]}
{"molecule": "N=C(N)c1ccc2cc(OC(=O)c3ccc(N=C(N)N)cc3)ccc2c1", "note": "[Nafamostat mesylate]", "values": [{"measurement": "EC50", "setting": "HeLa-ACE2 cells [10]", "result": "> 9.59", "unit": "µM"}, {"measurement": "EC50", "setting": "SARS-CoV-2 [5]; Severe acute respiratory syndrome coronavirus 2, HeLa-ACE2, unrounded geometric mean", "result": "> 9590", "unit": "nM"}, {"measurement": "effect on viral replication in ALI-HBECs", "setting": "SARS-CoV-2 [11]", "result": "inhibited viral replication"}, {"measurement": "CC50 at 48 h", "setting": "[12]", "result": "> 29.9", "unit": "µM"}, {"measurement": "Calu-3 uninfected cytotoxicity Sinf Average", "setting": "Calu-3 cells [6]; [16]", "result": -100, "unit": "%"}, {"measurement": "CC50 at 24 h", "setting": "[13]", "result": "> 39.8", "unit": "µM"}, {"measurement": "Emax", "setting": "Calu-3 cells [14]; Calu-3, 48 h, read-out: Calu-3 cell count Sinf Average", "result": 100, "unit": "%"}, {"measurement": "EC50", "setting": "Calu-3 cells [14]; Calu-3, read-out: Calu-3 cell count EC50 GeoMean, unrounded geometric mean", "result": 40, "unit": "nM"}, {"measurement": "EC50", "setting": "Calu-3 cells [14]; Calu-3, read-out: cell count EC50, Calu-3, geomean, ^↑ = increasing dose-response curve", "result": 40, "unit": "nM"}, {"measurement": "Emax", "setting": "SARS-CoV-2 [9]; Severe acute respiratory syndrome coronavirus 2, Calu-3, 48 h, curve-fit effect at infinite concentration, average, read-out: Calu-3 CoV-2 Sinf Average", "result": 93, "unit": "%"}, {"measurement": "EC50", "setting": "SARS-CoV-2 [9]; Severe acute respiratory syndrome coronavirus 2, Calu-3, unrounded geometric mean, read-out: Calu-3 CoV-2 EC50 GeoMean", "result": 24, "unit": "nM"}, {"measurement": "EC50", "setting": "SARS-CoV-2 [9]; Severe acute respiratory syndrome coronavirus 2, Calu-3, geomean, read-out: SARS-CoV-2 EC50", "result": 24, "unit": "nM"}]}
{"molecule": "CCN(CC)CCCNc1nccc2c(C)c3[nH]c4ccc(O)cc4c3c(C)c12", "note": "[SR-26050]", "values": [{"measurement": "EC50", "setting": "Calu-3 cells [1]; unrounded geometric mean", "result": "> 9.98", "unit": "µM"}, {"measurement": "HeLa-ACE2 CoV-2 Sinf Average", "setting": "SARS-CoV-2 [5]; [16]", "result": -101, "unit": "%"}, {"measurement": "EC50", "setting": "SARS-CoV-2 [5]; unrounded geometric mean", "result": 359, "unit": "nM"}, {"measurement": "Calu-3 uninfected cytotoxicity Sinf Average", "setting": "Calu-3 cells [6]; [16]", "result": -100, "unit": "%"}, {"measurement": "CC50", "setting": "Calu-3 cells [6]; unrounded geometric mean", "result": 5.84, "unit": "µM"}, {"measurement": "HeLa-ACE2 uninfected cytotoxicity Sinf Average", "setting": "HeLa-ACE2 cells [7]; [16]", "result": -98, "unit": "%"}, {"measurement": "CC50", "setting": "HeLa-ACE2 cells [7]; unrounded geometric mean", "result": 0.602, "unit": "µM"}, {"measurement": "HeLa-ACE2 cell count Sinf Average", "setting": "HeLa-ACE2 cells [8]; [16]", "result": -103, "unit": "%"}, {"measurement": "EC50", "setting": "HeLa-ACE2 cells [8]; unrounded geometric mean", "result": 0.48, "unit": "µM"}, {"measurement": "Calu-3 CoV-2 Sinf Average", "setting": "SARS-CoV-2 [9]", "result": -103, "unit": "%"}, {"measurement": "EC50", "setting": "SARS-CoV-2 [9]; [17]", "result": 503, "unit": "nM"}]}
{"molecule": "Antimycin A3", "values": [{"measurement": "Calu-3 cell count Sinf Average", "setting": "Calu-3 cells [1]; [16]", "result": 47, "unit": "%"}, {"measurement": "EC50", "setting": "Calu-3 cells [1]; unrounded geometric mean", "result": 0.0626, "unit": "µM"}, {"measurement": "EC50", "setting": "SARS-CoV-2 [5]; unrounded geometric mean", "result": "> 9590", "unit": "nM"}, {"measurement": "Calu-3 uninfected cytotoxicity Sinf Average", "setting": "Calu-3 cells [6]; [16]", "result": -79, "unit": "%"}, {"measurement": "CC50", "setting": "Calu-3 cells [6]; unrounded geometric mean", "result": "> 3.9", "unit": "µM"}, {"measurement": "HeLa-ACE2 uninfected cytotoxicity Sinf Average", "setting": "HeLa-ACE2 cells [7]; [16]", "result": -100, "unit": "%"}, {"measurement": "CC50", "setting": "HeLa-ACE2 cells [7]; unrounded geometric mean", "result": "> 39.8", "unit": "µM"}, {"measurement": "EC50", "setting": "HeLa-ACE2 cells [8]; unrounded geometric mean", "result": "> 9.59", "unit": "µM"}, {"measurement": "Calu-3 CoV-2 Sinf Average", "setting": "SARS-CoV-2 [9]; [16]", "result": -92, "unit": "%"}, {"measurement": "EC50", "setting": "SARS-CoV-2 [9]; [17]", "result": 35.5, "unit": "nM"}]}
